Laboratory results published in PubChem BioAssay (NCI).
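Values below derive from 48-hour exposures of cells grown in 96-well plates, with endpoints linearly interpolated between the two concentrations bracketing the appropriate inhibition level. GI50 = concentration required for 50% inhibition of growth. Definition used: TGI = concentration required for complete inhibition of growth.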

Experiments:
Assay in all cases: growth of human tumour cells (NCI), 48 h
[1] = test system: UO-31 renal
[2] = test system: SK-OV-3 ovarian
[3] = test system: PC-3 prostate
[4] = test system: NCI-H460 lung
[5] = test system: RPMI-8226 leukemia
[6] = test system: SK-MEL-5 melanoma
[7] = test system: OVCAR-5 ovarian
[8] = test system: M14 melanoma
[9] = test system: SK-MEL-2 melanoma
[10] = test system: OVCAR-8 ovarian
[11] = test system: HOP-92 NSCLC
[12] = test system: OVCAR-4 ovarian
[13] = test system: HOP-62 NSCLC
[14] = test system: UACC-62 melanoma
[15] = test system: CAKI-1 renal
[16] = test system: RXF 393 renal
[17] = test system: MALME-3M melanoma
[18] = test system: T-47D breast
[19] = test system: SF-539 CNS
[20] = test system: MCF7 breast
[21] = test system: COLO 205 colon
[22] = test system: 786-0 renal
[23] = test system: KM12 colon
[24] = test system: HL-60(TB) leukemia
[25] = test system: K-562 leukemia
[26] = test system: NCI-H226 lung
[27] = test system: LOX IMVI melanoma
[28] = test system: A549 NSCLC
[29] = test system: UACC-257 melanoma
[30] = test system: MOLT-4 leukemia
[31] = test system: SW-620 colon
[32] = test system: NCI-H522 lung
[33] = test system: SF-268 CNS
[34] = test system: CCRF-CEM leukemia
[35] = test system: OVCAR-3 ovarian
[36] = test system: SN12C renal
[37] = test system: HCC-2998 colon
[38] = test system: ACHN renal
[39] = test system: BT-549 breast
[40] = test system: NCI/ADR-RES ovarian
[41] = test system: EKVX NSCLC
[42] = test system: HCT-116 colon
[43] = test system: SNB-19 CNS
[44] = test system: IGROV1 ovarian
[45] = test system: SF-295 CNS
[46] = test system: HT29 colon
[47] = test system: SK-MEL-28 melanoma
[48] = test system: U251 CNS
[49] = test system: MDA-MB-231 breast
[50] = test system: NCI-H23 lung
[51] = test system: A498 renal
[52] = test system: MDA-MB-435
[53] = test system: TK-10 renal
[54] = test system: SNB-75 CNS
[55] = test system: DU-145 prostate
[56] = test system: HCT-15 colon
[57] = test system: HS 578T breast

Q: How did the TGI [1] turn out when `C1=CC2C(C3CN(c4ccccc4)N=C13)C1C3C4C=CC21C=CC43` (stereo not given) was run?
A: > 100 µM

Q: What about the TGI [2] of the same molecule?
A: > 100 µM

Q: What about the TGI [3] of the same molecule?
A: > 100 µM

Q: And the TGI [4]?
A: > 100 µM

Q: What about the TGI [5] of the same molecule?
A: > 100 µM

Q: What about the TGI [6] of the same molecule?
A: > 100 µM

Q: What about the TGI [7] of the same molecule?
A: > 100 µM

Q: What about the TGI [8] of the same molecule?
A: > 100 µM

Q: And the TGI [9]?
A: > 100 µM

Q: What about the TGI [10] of the same molecule?
A: > 100 µM

Q: And the TGI [11]?
A: > 100 µM

Q: What about the TGI [12] of the same molecule?
A: > 100 µM

Q: And the TGI [13]?
A: > 100 µM

Q: And the TGI [14]?
A: > 100 µM

Q: And the TGI [15]?
A: > 100 µM

Q: And the TGI [16]?
A: > 100 µM

Q: And the TGI [17]?
A: > 100 µM

Q: And the TGI [18]?
A: > 100 µM

Q: And the TGI [19]?
A: > 100 µM

Q: What about the TGI [20] of the same molecule?
A: > 100 µM

Q: And the TGI [21]?
A: > 100 µM

Q: What about the TGI [22] of the same molecule?
A: > 100 µM

Q: What about the TGI [23] of the same molecule?
A: > 100 µM

Q: What about the TGI [24] of the same molecule?
A: > 100 µM

Q: What about the TGI [25] of the same molecule?
A: > 100 µM

Q: And the TGI [26]?
A: > 100 µM

Q: And the TGI [27]?
A: > 100 µM

Q: What about the TGI [28] of the same molecule?
A: > 100 µM

Q: What about the TGI [29] of the same molecule?
A: > 100 µM

Q: What about the TGI [30] of the same molecule?
A: > 100 µM

Q: And the TGI [31]?
A: > 100 µM

Q: And the TGI [32]?
A: > 100 µM

Q: What about the TGI [33] of the same molecule?
A: > 100 µM

Q: What about the TGI [34] of the same molecule?
A: > 100 µM

Q: And the TGI [35]?
A: > 100 µM

Q: And the TGI [36]?
A: > 100 µM

Q: What about the TGI [37] of the same molecule?
A: > 100 µM

Q: What about the TGI [38] of the same molecule?
A: > 100 µM

Q: And the TGI [39]?
A: > 100 µM

Q: And the TGI [40]?
A: > 100 µM

Q: And the TGI [41]?
A: > 100 µM

Q: And the TGI [42]?
A: > 100 µM

Q: And the TGI [43]?
A: > 100 µM

Q: And the TGI [44]?
A: > 100 µM

Q: And the TGI [45]?
A: > 100 µM

Q: What about the TGI [46] of the same molecule?
A: > 100 µM

Q: What about the TGI [47] of the same molecule?
A: > 100 µM

Q: What about the TGI [48] of the same molecule?
A: > 100 µM

Q: What about the TGI [49] of the same molecule?
A: > 100 µM

Q: What about the TGI [50] of the same molecule?
A: > 100 µM

Q: What about the TGI [51] of the same molecule?
A: > 100 µM

Q: What about the TGI [52] of the same molecule?
A: > 100 µM

Q: And the TGI [53]?
A: > 100 µM

Q: And the TGI [54]?
A: > 100 µM

Q: What about the TGI [55] of the same molecule?
A: > 100 µM

Q: And the TGI [56]?
A: > 100 µM

Q: And the TGI [57]?
A: > 100 µM

Q: `NS(=O)(=O)c1ccc(-n2nc3c(c2-c2cccs2)Cc2ccccc2-3)cc1` was tested. Which GI50 [1] did it give?
A: 12.2 µM

Q: And the TGI [1]?
A: 24.6 µM

Q: What about the GI50 [2] of the same molecule?
A: 37.7 µM

Q: And the TGI [2]?
A: > 100 µM

Q: What about the GI50 [3] of the same molecule?
A: 6.76 µM

Q: What about the TGI [3] of the same molecule?
A: 20.6 µM

Q: And the GI50 [4]?
A: > 100 µM

Q: What about the TGI [4] of the same molecule?
A: > 100 µM

Q: And the GI50 [5]?
A: 6.68 µM

Q: And the TGI [5]?
A: 26.6 µM

Q: What about the GI50 [6] of the same molecule?
A: 10.5 µM

Q: And the TGI [6]?
A: 22.5 µM

Q: What about the GI50 [7] of the same molecule?
A: 18.5 µM

Q: What about the TGI [7] of the same molecule?
A: 48 µM

Q: What about the GI50 [8] of the same molecule?
A: 17.3 µM

Q: And the TGI [8]?
A: 34.1 µM

Q: And the GI50 [9]?
A: 27.6 µM

Q: What about the TGI [9] of the same molecule?
A: 69.6 µM

Q: What about the GI50 [10] of the same molecule?
A: 20.5 µM

Q: And the TGI [10]?
A: 41.6 µM

Q: What about the GI50 [11] of the same molecule?
A: 5.56 µM

Q: And the TGI [11]?
A: 22.7 µM

Q: And the GI50 [12]?
A: 29.9 µM

Q: And the TGI [12]?
A: > 100 µM

Q: And the GI50 [13]?
A: 16.5 µM

Q: What about the TGI [13] of the same molecule?
A: 32.2 µM

Q: What about the GI50 [14] of the same molecule?
A: 11.5 µM

Q: And the TGI [14]?
A: 23.7 µM

Q: And the GI50 [15]?
A: 10.1 µM

Q: And the TGI [15]?
A: 22.7 µM

Q: What about the GI50 [16] of the same molecule?
A: 17.4 µM

Q: What about the TGI [16] of the same molecule?
A: 40.7 µM

Q: What about the GI50 [18] of the same molecule?
A: 12.8 µM

Q: And the TGI [18]?
A: 41.1 µM

Q: And the GI50 [19]?
A: 12.1 µM

Q: What about the TGI [19] of the same molecule?
A: 25.1 µM

Q: And the GI50 [20]?
A: > 100 µM

Q: What about the TGI [20] of the same molecule?
A: > 100 µM

Q: And the GI50 [21]?
A: 25.3 µM

Q: And the TGI [21]?
A: 69.3 µM

Q: And the GI50 [22]?
A: 17.1 µM

Q: What about the TGI [22] of the same molecule?
A: 31.9 µM

Q: What about the GI50 [23] of the same molecule?
A: 13.5 µM

Q: What about the TGI [23] of the same molecule?
A: 32.2 µM

Q: And the GI50 [25]?
A: 0.858 µM

Q: And the TGI [25]?
A: 3.55 µM

Q: And the GI50 [26]?
A: 4.9 µM

Q: What about the TGI [26] of the same molecule?
A: 26.2 µM

Q: And the GI50 [27]?
A: 6.58 µM

Q: What about the TGI [27] of the same molecule?
A: 19.9 µM

Q: What about the GI50 [28] of the same molecule?
A: 20.7 µM

Q: And the TGI [28]?
A: 51.1 µM

Q: What about the GI50 [29] of the same molecule?
A: 23.2 µM

Q: What about the TGI [29] of the same molecule?
A: 44.2 µM

Q: What about the GI50 [30] of the same molecule?
A: 1.43 µM

Q: What about the TGI [30] of the same molecule?
A: 3.97 µM

Q: And the GI50 [31]?
A: 10.2 µM

Q: What about the TGI [31] of the same molecule?
A: 23.4 µM

Q: What about the GI50 [32] of the same molecule?
A: 12.4 µM

Q: And the TGI [32]?
A: 29.8 µM

Q: What about the GI50 [33] of the same molecule?
A: > 100 µM

Q: What about the TGI [33] of the same molecule?
A: > 100 µM

Q: What about the GI50 [34] of the same molecule?
A: 4.24 µM

Q: And the TGI [34]?
A: 28.7 µM

Q: And the GI50 [35]?
A: 14.4 µM

Q: What about the TGI [35] of the same molecule?
A: 44.4 µM

Q: And the GI50 [36]?
A: 12.2 µM

Q: What about the TGI [36] of the same molecule?
A: 25 µM

Q: And the GI50 [37]?
A: 12.8 µM

Q: What about the TGI [37] of the same molecule?
A: 25.4 µM

Q: And the GI50 [38]?
A: 11.7 µM

Q: What about the TGI [38] of the same molecule?
A: 24.7 µM

Q: What about the GI50 [39] of the same molecule?
A: 12.4 µM

Q: What about the TGI [39] of the same molecule?
A: 26.3 µM

Q: What about the GI50 [40] of the same molecule?
A: 12.4 µM

Q: What about the TGI [40] of the same molecule?
A: 26.1 µM

Q: And the GI50 [41]?
A: 11.9 µM

Q: And the TGI [41]?
A: 29.4 µM

Q: What about the GI50 [42] of the same molecule?
A: 7.67 µM

Q: And the TGI [42]?
A: 22.7 µM

Q: And the GI50 [43]?
A: 18.1 µM

Q: And the TGI [43]?
A: 44.8 µM

Q: What about the GI50 [44] of the same molecule?
A: 2.49 µM

Q: What about the TGI [44] of the same molecule?
A: 15.5 µM

Q: And the GI50 [45]?
A: 13.8 µM

Q: And the TGI [45]?
A: 31.4 µM

Q: And the GI50 [46]?
A: 22.9 µM

Q: What about the TGI [46] of the same molecule?
A: 59.4 µM

Q: What about the GI50 [47] of the same molecule?
A: 25.8 µM

Q: And the TGI [47]?
A: 58.4 µM

Q: And the GI50 [48]?
A: 12.3 µM

Q: And the TGI [48]?
A: 25.8 µM

Q: What about the GI50 [49] of the same molecule?
A: 17.3 µM

Q: What about the TGI [49] of the same molecule?
A: 36.2 µM

Q: What about the GI50 [50] of the same molecule?
A: 11.9 µM

Q: And the TGI [50]?
A: 24.8 µM

Q: What about the GI50 [52] of the same molecule?
A: 11.8 µM

Q: What about the TGI [52] of the same molecule?
A: 27.6 µM

Q: And the GI50 [53]?
A: 12.2 µM

Q: What about the TGI [53] of the same molecule?
A: 38.7 µM

Q: And the GI50 [54]?
A: 25.5 µM

Q: What about the TGI [54] of the same molecule?
A: 83.1 µM

Q: And the GI50 [55]?
A: 10.6 µM

Q: What about the TGI [55] of the same molecule?
A: 24 µM

Q: And the GI50 [56]?
A: 12 µM

Q: And the TGI [56]?
A: 27.8 µM

Q: What about the GI50 [57] of the same molecule?
A: 16.1 µM

Q: What about the TGI [57] of the same molecule?
A: 51 µM
